According to patent US8580577B2, “Method for detecting an analyte in a sample” (Evotec AG, priority 2002, dated 2013):

Experiments:
CYP1A1 mRNA = test: Expression of cyp1A1 mRNA in HepG2 cells stimulated with 3-methylcholanthrene (homogeneous bead-based detection oligonucleotide assay); format: cell-based; details: human, 24 h 3-MC, each of three plates, standard deviation 0.05 μM between plates
Description: (§1) Fully automated dual-channel confocal imaging was performed with two independent cooled CCD detectors. Excitation wavelengths were 532 nm and 633 nm, a dichroic beam splitter with 630 nm was used and emission filters were 565/50 nm and 690/40 nm. Laser power was ˜500 μW for both wavelengths, measured at the entrance of the objective. Exposure times were usually in the range of 500-1000 ms.
An image of the sample was acquired at 565 nm by the first CCD detector. This image is called the signal image. At this wavelength, the emission of the detection oligonucleotides is seen. Therefore, in principle one can see the fluorescence emission of both the unbound detection oligonucleotides as well as the detection oligonucleotides bound specifically to the analyte (and consequently via the capture oligonucleotides to the beads). […]
In addition, an image of the sample was acquired at 690 nm by the second CCD detector. […] The fluorescence of the biotinylated red oxazine dye bound to the beads can be seen as a red ring in the reference image (see FIG. 6, left picture). […] This fluorescence intensity is constant and not dependent on the mRNA analyte concentration, see FIG. 5 for illustration. […]
The analysis of the images was performed with image analysis software as follows. […] A mask of these rings corresponding to detected beads was generated from the reference image. […]

Cyp1A1 = Cyp1A1 induction by 3-methylcholanthrene, publication of Delescluse et al.; read-out: EC50 roughly estimated from a published Northern Blot; cited from earlier work
c-fos mRNA = test: Expression of c-fos mRNA in HepG2 cells stimulated with PMA (homogeneous bead-based detection oligonucleotide assay, confocal imaging); format: cell-based; details: for Mean average fluorescence signal intensity/bead pixel: 1 h
Description: as §1
An image of the sample was acquired at 565 nm by the first CCD detector. This image is called the signal image. At this wavelength, the emission of the detection oligonucleotides is seen. Therefore, in principle one can see the fluorescence emission of both the unbound detection oligonucleotides as well as the detection oligonucleotides bound specifically to the analyte (and consequently via the capture oligonucleotides to the beads). To distinguish these signals from each other, the present invention teaches to minimize the emission of the unbound detection oligonucleotides by the use of complementary quencher oligonucleotides. The signal intensity on the beads is linear dependent on the analyte concentration, i.e. in the present example the mRNA concentration.
In addition, an image of the sample was acquired at 690 nm by the second CCD detector. This image is called the reference image. At this wavelength, the emission of the biotinylated red oxazine dye is seen. The fluorescence of the biotinylated red oxazine dye bound to the beads can be seen as a red ring in the reference image (see FIG. 6, left picture). This emission of the dyes bound to the beads can be distinguished from the background emission of the unbound biotinylated red oxazine dye through threshold techniques. This fluorescence intensity is constant and not dependent on the mRNA analyte concentration, see FIG. 5 for illustration. At extremely high mRNA concentrations it may become inversely related to the mRNA concentrations due to limited streptavidin binding sites, however, under physiological conditions and in the experiments presented here this was not the case.
The analysis of the images was performed with image analysis software as follows. Segmentation of the beads from the background was performed on a pixel-basis in the reference image. […] A mask of these rings corresponding to detected beads was generated from the reference image. This mask was applied to the signal image (see FIG. 6, right picture). Areas within the outer boundary of the ring were evaluated for fluorescence intensity stemming from the DO-analyte-CO complex bound to the bead. […] Such local background intensity was then subtracted from the signal intensity.
The final result was the mean fluorescence intensity/bead pixel of the signal image. In general, the intensity was averaged over all correctly detected beads of the image. The beads were usually comprised in wells of micro- or nanotiter plates and in some cases, several images were taken of each well. In this instance, the intensity was averaged over all images of one well.
HepG2 cells were seeded at a density of 2*10^6 cells in 10 ml medium/plate (corresponding to 2*10^5 cells/ml) in nine 10 cm tissue culture plates (Greiner bio-one, catalogue no. 664160) in DMEM-F12 (Gibco, catalogue no. 31331-028) supplemented with 10% FCS (Gibco, catalogue no. 10500-064). The cells were incubated for 48 h at 37° C. with 5% CO2. Then medium was changed to DMEM (Sigma, catalogue no. D 5921) supplemented with 0.1% sterile filtered HSA (Sigma, catalogue no. A 1653) and incubation was continued for 24 h at 37° C. with 5% CO2. Then the cells were incubated with PMA (Phorbol 12-myristate 13-acetate, Sigma, catalogue no. P1585) for 1 h at 37° C. and 5% CO2 to induce expression of c-fos. 500 μl of appropriate PMA dilutions in DMEM with 0.1% HSA were added, for final concentrations refer to table 4 below.
One control plate was used for cell counting, the final cell number was 1.5*10^7 cells/plate. […]

| Structure (SMILES) | EC50 at 24 h (CYP1A1 mRNA) [nM] | EC50 (Cyp1A1) [nM] | average expression rate of c-fos mRNA (c-fos mRNA; 100 nM PMA, 7.2*10^4 lysed cells per well) [copies mRNA/cell] | c-fos mRNA copy number per well (c-fos mRNA; 100 nM PMA, 24 μl of lysate, from the calibration of example 1a) | EC50 (c-fos mRNA; HepG2 cells, 1 h PMA, read-out: EC50 of increase in c-fos expression) [nM] | Mean average fluorescence signal intensity/bead pixel (c-fos mRNA; HepG2 cells, PMA 0.5 nM) | Mean average fluorescence signal intensity/bead pixel (c-fos mRNA; HepG2 cells, PMA 1 nM) | Mean average fluorescence signal intensity/bead pixel (c-fos mRNA; HepG2 cells, PMA 10 nM) | Mean average fluorescence signal intensity/bead pixel (c-fos mRNA; HepG2 cells, PMA 100 nM) | Mean average fluorescence signal intensity/bead pixel (c-fos mRNA; HepG2 cells, PMA 500 nM) | Mean average fluorescence signal intensity/bead pixel (c-fos mRNA; HepG2 cells, PMA 1000 nM) |
| --- | --- | --- | --- | --- | --- | --- | --- | --- | --- | --- | --- |
| Cc1ccc2cc3c(ccc4ccccc43)c3c2c1CC3 [3-MC, 3-methylcholanthrene] | 800 | ~500 |  |  |  |  |  |  |  |  |  |
| CCCCCCCCCCCCCC(=O)O[C@@H]1[C@@H](C)[C@@]2(O)[C@@H](C=C(CO)C[C@]3(O)C(=O)C(C)=C[C@@H]23)[C@@H]2C(C)(C)[C@]12OC(C)=O [PMA, Phorbol 12-myristate 13-acetate] |  |  | 42 | 3.03*10^6 copies mRNA/well | 484 | 1.51 | 1.53 | 4.84 | 14.29 | 24.44 | 30.03 |
